US9034368B2 (PUREPHARM INC., priority 2002, dated 2015)

Experiments:
[1] = test system: excessive sweating; conditions: patient 3: topical application (1% pads and 1% spray)
[2] = test system: hyperhidrosis and gustatory sweating; conditions: cited from earlier work
[3] = Hay 1982; roll-on solution, distilled water; concentrations above 2%; cited from earlier work

## C[N+]1(C)CCC(OC(=O)C(O)(c2ccccc2)C2CCCC2)C1 (stereo not shown) [glycopyrrolate]
[1]
  side effects: not experienced any side effects
[2]; 0.1% concentration, Hays 1978
  efficacy of topical concentration: ineffective
[2]; Hay 1982, 2 & 4% HEB cream base
  efficacy of solution versus cream: Solution worked better than
[2]; May 1989, 0.5 & 2.0% roll-on, 2.0% cream, almost all patients
  relief of sweating: total or partial relief. Placebo
[2]; Seukeran 1998, 0.50% aqueous solution
  efficacy: Worked well
[2]; topical, Hays 1978
  concentration after which mild side effects begin to present themselves: > 4%
[3]
  crystallisation from solution: Glycopyrrolate crystalized out
